In PubChem BioAssay (NCI):
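Following 48 hours of exposure in 96-well plates, responses at five concentrations were used to interpolate endpoints linearly. TGI: total growth inhibition.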

How the values were obtained:
Test in all cases: NCI anticancer screen, dose series, 48 h
NCI-H522 lung = tested on: NCI-H522 lung
SK-MEL-2 melanoma = tested on: SK-MEL-2 melanoma
LOX IMVI melanoma = tested on: LOX IMVI melanoma
786-0 renal = tested on: 786-0 renal
DU-145 prostate = tested on: DU-145 prostate
OVCAR-4 ovarian = tested on: OVCAR-4 ovarian
A498 renal = tested on: A498 renal
PC-3 prostate = tested on: PC-3 prostate
MDA-N = tested on: MDA-N
SNB-19 CNS = tested on: SNB-19 CNS
OVCAR-3 ovarian = tested on: OVCAR-3 ovarian
U251 CNS = tested on: U251 CNS
SNB-75 CNS = tested on: SNB-75 CNS
HS 578T breast = tested on: HS 578T breast
DMS 273 small cell lung = tested on: DMS 273 small cell lung
SNB-78 CNS = tested on: SNB-78 CNS
XF 498 CNS = tested on: XF 498 CNS
DMS 114 small cell lung = tested on: DMS 114 small cell lung
DLD-1 colon = tested on: DLD-1 colon
HOP-18 NSCLC = tested on: HOP-18 NSCLC

Row | SMILES | TGI (NCI-H522 lung) | TGI (SK-MEL-2 melanoma) | TGI (LOX IMVI melanoma) | TGI (786-0 renal) | TGI (DU-145 prostate) | TGI (OVCAR-4 ovarian) | TGI (A498 renal) | TGI (PC-3 prostate) | TGI (MDA-N) | TGI (SNB-19 CNS) | TGI (OVCAR-3 ovarian) | TGI (U251 CNS) | TGI (SNB-75 CNS) | TGI (HS 578T breast) | TGI (DMS 273 small cell lung) | TGI (SNB-78 CNS) | TGI (XF 498 CNS) | TGI (DMS 114 small cell lung) | TGI (DLD-1 colon) | TGI (HOP-18 NSCLC)
1 | Cc1ccc(Nc2nc(N)nc3c2ncn3C2OC(CO)C(O)C2O)cc1 (centres undefined) | > 100 µM | > 100 µM | > 100 µM | > 100 µM | > 100 µM | > 100 µM | > 100 µM | > 100 µM | > 100 µM | > 100 µM | > 100 µM | > 100 µM | > 100 µM | – | – | – | – | – | – | –
2 | NC(CCP(=O)(O)CCC1C=CC=CC1)C(=O)O (centres undefined) | 55.4 µM | > 100 µM | > 100 µM | – | > 100 µM | > 100 µM | – | > 100 µM | > 100 µM | > 100 µM | > 100 µM | > 100 µM | > 100 µM | > 100 µM | – | – | – | – | – | –
3 | CC(C)(C)[Si](C)(C)OCC1CCC(n2cnc3c(N)ncnc32)O1 (centres undefined) | – | > 100 µM | > 100 µM | – | > 100 µM | > 100 µM | > 100 µM | > 100 µM | > 100 µM | > 100 µM | > 100 µM | > 100 µM | > 100 µM | > 100 µM | – | – | – | – | – | –
4 | CC1=CC(=O)C(=O)C2=C1OC1(C2)C(C)CCC2C3(C)CCC(O)C(C)(C)C3CCC21C (centres undefined) | 30.7 µM | – | 35.8 µM | 33.3 µM | – | 37.4 µM | – | – | – | 32.2 µM | 34.6 µM | 29.9 µM | > 100 µM | – | 60.9 µM | 64.6 µM | 34 µM | 33.6 µM | 41.8 µM | –
5 | N=C(N)c1csc([C@@H]2O[C@H](CO)[C@@H](O)[C@H]2O)n1 | – | > 100 µM | > 100 µM | – | – | > 100 µM | – | – | – | > 100 µM | – | > 100 µM | > 100 µM | – | > 100 µM | > 100 µM | > 100 µM | – | > 100 µM | > 100 µM
6 | O=C(O)C1Cc2c([nH]c3ccccc23)C=N1 (centres undefined) | > 100 µM | > 100 µM | > 100 µM | – | – | > 100 µM | > 100 µM | – | – | > 100 µM | > 100 µM | > 100 µM | > 100 µM | – | > 100 µM | > 100 µM | > 100 µM | > 100 µM | > 100 µM | > 100 µM
7 | COC1CC(OC2CCC3(C)C(CCC45CCC(C6=CC(=O)OC6)C(C)(CCC43)C5=O)C2)OC(C)C1O (centres undefined) | 82.1 µM | > 100 µM | > 100 µM | 64.8 µM | 29.3 µM | – | > 100 µM | > 100 µM | > 100 µM | 63.6 µM | 82 µM | > 100 µM | > 100 µM | > 100 µM | – | – | – | – | – | –
8 | NNc1nc2ccccc2s1 | > 100 µM | > 100 µM | > 100 µM | > 100 µM | > 100 µM | > 100 µM | > 100 µM | > 100 µM | > 100 µM | > 100 µM | – | > 100 µM | > 100 µM | > 100 µM | – | – | – | – | – | –
9 | O=C1C(=O)c2ccccc2C(O)=C1CN(CCCl)CCCl | > 100 µM | > 100 µM | – | > 100 µM | – | > 100 µM | > 100 µM | – | – | > 100 µM | > 100 µM | > 100 µM | > 100 µM | – | – | > 100 µM | > 100 µM | – | > 100 µM | –
10 | CC12CCC(C(=O)N3CC=CCC3)(OC1=O)C2(C)C (centres undefined) | > 100 µM | > 100 µM | > 100 µM | – | – | > 100 µM | > 100 µM | – | – | > 100 µM | > 100 µM | > 100 µM | > 100 µM | – | > 100 µM | > 100 µM | > 100 µM | > 100 µM | > 100 µM | > 100 µM
